Experimental data as given in ChEMBL document CHEMBL1159157, “Novel inhibitors of influenza sialidase related to GG167 Synthesis of 4-amino and guanidino-4H-pyran-2-carboxylic acid-6-propylamides; selective inhibitors of influenza a virus sialidase” (Bioorg Med Chem Lett, 1996).
In brackets after ≈: the same amount, converted by molar mass.

Legend:
Influenza B virus = assay: In vitro antiviral activity was evaluated in a plaque reduction assay against influenza B; type: functional, organism-based
Influenza A virus = assay: In vitro antiviral activity was evaluated in a plaque reduction assay against influenza A; type: functional, organism-based

Row | SMILES | IC50 (Influenza B virus) [ng/mL] | IC50 (Influenza A virus) [ng/mL]
1 | CCCN(C)C(=O)[C@@H]1OC(C(=O)O)=C[C@H](NC(=N)N)[C@H]1NC(C)=O | 2200 (≈ 6.44 µM) | 11 (≈ 0.0322 µM)
2 | CCCN(CCC)C(=O)[C@@H]1OC(C(=O)O)=C[C@H](NC(=N)N)[C@H]1NC(C)=O | – | 0.1 (≈ 0.000271 µM)
3 | CCCN(C)C(=O)[C@@H]1OC(C(=O)O)=C[C@H](N)[C@H]1NC(C)=O | 16000 (≈ 53.5 µM) | 320 (≈ 1.07 µM)
4 | CCCNC(=O)[C@@H]1OC(C(=O)O)=C[C@H](N)[C@H]1NC(C)=O | 44000 (≈ 154 µM) | –
5 | CC(=O)N[C@H]1[C@H]([C@H](O)[C@H](O)CO)OC(C(=O)O)=C[C@@H]1N | 20 (≈ 0.0689 µM) | 470 (≈ 1.62 µM)
6 | CCCNC(=O)[C@@H]1OC(C(=O)O)=C[C@H](NC(=N)N)[C@H]1NC(C)=O | 3800 (≈ 11.6 µM) | 280 (≈ 0.855 µM)
